Here are results for three compounds from patent US20160015704A1, “COMBINATIONS COMPRISING MABA COMPOUNDS AND CORTICOSTEROIDS” (ALMIRALL, S.A., priority 2013, published 2016).

The test system of the test is IL-8 secretion induced by LPS in peripheral blood neutrophils. The experiment in a line: Inhibition of IL-8 secretion induced by LPS in isolated peripheral blood neutrophils (ELISA). It counts as cell-based. The conditions noted are these: Homo sapiens, Neutrophil; for inhibition at 10 pM: single agent 0.01 nM. On the procedure: 5 Healthy subjects were included for leukocyte experiments. Pulmonary function tests (forced spirometry) and arterial blood gas measurements were performed during the days prior to sample.
Neutrophils were isolated from peripheral blood of healthy volunteers according to standard procedures established in the laboratory (Milara J et al., Respiration 2012; 83, 147-158).
Isolated neutrophils were incubated with different drugs (MABA compound, mometasone or fluticasone) or vehicle for 30 minutes before incubation with LPS (1 mcg/mL) (Lipopolysaccharide, a representative stimulus as inflammatory mediator) for 6 hours in standard cell culture conditions (37° C. and 5% CO2). Supernatant were collected to measure IL-8 (the inflammatory marker).
IL-8 (Interleukin-8) was determined by ELISA according to the standard procedure.
Data was presented as mean±SEM. Statistical analysis of results was carried out by analysis of variance (ANOVA) followed by Bonferroni test, by Student's t test, or by non-parametric tests as appropriate (GraphPad Software Inc, San Diego, Calif., USA). Significance was accepted when P<0.05.
In general terms: ELISA stands for enzyme-linked immunosorbent assay.

The mark [1] stands for this setting: 30 min pre-incubation, LPS 1 mcg/mL 6 h, neutrophils from healthy subjects (5 volunteers in triplicate), Table 1.

As for `C[C@@H]1C[C@H]2[C@@H]3CCC4=CC(=O)C=C[C@]4(C)[C@@]3(Cl)[C@@H](O)C[C@]2(C)[C@@]1(O)C(=O)CCl` [Mometasone, mometasone], testing at 10 pM under setting [1] gave an inhibition of 2.85%.

For `COc1cc(NC(=O)OCCN(C)[C@H]2CC[C@H](OC(=O)C(O)(c3cccs3)c3cccs3)CC2)c(Cl)cc1CNC[C@H](O)c1ccc(O)c2[nH]c(=O)ccc12` [Cpd 1, trans-4-[{2-[({[2-chloro-4-({[(2R)-2-hydroxy-2-(8-hydroxy-2-oxo-1,2-dihydroquinolin-5-yl)ethyl]amino}methyl)-5-methoxyphenyl]amino}carbonyl)oxy]ethyl}-(methyl)amino]cyclohexyl hydroxy(di-2-thienyl)acetate], the inhibition at 10 pM reads like this: under setting [1], 5.6%; (IL-8 secretion induced by LPS 1 mcg/mL 6 h, neutrophils from healthy subjects, Table 2) 5.6%.

For `C[C@@H]1C[C@H]2[C@@H]3C[C@H](F)C4=CC(=O)C=C[C@]4(C)[C@@]3(F)[C@@H](O)C[C@]2(C)[C@@]1(O)C(=O)SCF` [Fluticasone, fluticasone], under “single agent 0.1 nM, IL-8 secretion induced by LPS 1 mcg/mL 6 h, neutrophils from healthy subjects, Table 2”, the inhibition at 0.0001 µM was 10.2%.

For orientation: inhibition means how much of the control response was suppressed. Higher therefore signals a strong effect.
